Experimental data from patent US20180008587A1, “THIOHYDANTOIN ANDROGEN RECEPTOR ANTAGONISTS FOR THE TREATMENT OF CANCER” (Jaressen Pharmaceutica NV, priority 2016, published 2018).
Residue numbers refer to the chain shown, from its start. Read-outs that look alike come from different tables or passages of the source.

Key:
Format in all cases: cell-based
[1] = biological target: T1, wild-type Androgen Receptor (AR-wt) (Homo sapiens, UniProt P10275); experiment: LNCaP-AR-wt AG reporter assay (ARE firefly luciferase, agonist mode); settings: for Emax: read-out: LNCaP-AR-wt AG MAX % Stim
T1 construct: expressed in transfected cells; host or cells: LNCaP (LNCaP AR (cs))
T1 sequence (P10275 1-920): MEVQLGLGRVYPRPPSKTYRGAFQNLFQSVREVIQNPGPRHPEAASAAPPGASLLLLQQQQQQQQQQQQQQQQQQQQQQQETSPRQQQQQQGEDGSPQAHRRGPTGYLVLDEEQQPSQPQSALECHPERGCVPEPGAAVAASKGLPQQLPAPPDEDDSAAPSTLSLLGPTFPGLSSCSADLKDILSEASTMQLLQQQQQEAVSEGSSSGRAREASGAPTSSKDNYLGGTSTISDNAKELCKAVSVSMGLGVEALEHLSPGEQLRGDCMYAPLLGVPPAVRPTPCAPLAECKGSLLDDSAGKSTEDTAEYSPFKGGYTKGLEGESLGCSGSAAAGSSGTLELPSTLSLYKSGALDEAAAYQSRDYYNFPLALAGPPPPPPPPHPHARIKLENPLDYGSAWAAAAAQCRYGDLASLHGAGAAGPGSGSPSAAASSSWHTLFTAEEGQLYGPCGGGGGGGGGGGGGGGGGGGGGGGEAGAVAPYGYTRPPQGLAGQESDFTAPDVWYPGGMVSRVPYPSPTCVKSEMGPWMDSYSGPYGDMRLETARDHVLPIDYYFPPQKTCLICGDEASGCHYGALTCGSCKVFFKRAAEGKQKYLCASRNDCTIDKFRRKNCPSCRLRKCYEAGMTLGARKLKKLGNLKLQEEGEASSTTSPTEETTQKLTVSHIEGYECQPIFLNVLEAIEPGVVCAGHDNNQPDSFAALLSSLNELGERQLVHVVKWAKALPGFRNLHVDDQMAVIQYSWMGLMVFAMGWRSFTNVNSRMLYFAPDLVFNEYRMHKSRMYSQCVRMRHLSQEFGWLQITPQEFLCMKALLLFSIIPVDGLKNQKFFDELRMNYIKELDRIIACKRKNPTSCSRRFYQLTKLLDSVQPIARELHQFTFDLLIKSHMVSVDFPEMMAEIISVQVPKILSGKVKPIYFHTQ
Procedure, shortened: (§1)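 Puromycin-selected pooled LNCaP populations expressing AR-wt or AR-F876L are seeded in CSS medium and treated with compound for 20-24 h at 37 °C. For antagonist testing, agonist is added at 400 pM (WT) or 600 pM (F876L). Potency values derive from least-squares fitting of luminescence RLU.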

[2] = biological target: T2, F876L mutant Androgen Receptor (AR-F876L) (Homo sapiens, UniProt P10275, F877L); experiment: LNCaP-AR-F876L ANT reporter assay (ARE firefly luciferase, antagonist mode); settings: for Emax: read-out: LNCaP-AR-F876L ANT MAX % Inh; for IC50: read-out: LNCaP-AR-F876L ANT pIC50 (converted)
T2 construct: expressed in transfected cells; host or cells: LNCaP (LNCaP F876L)
T2 sequence (P10275 1-920 F877L): T1 sequence (P10275 1-920) with F877L
Procedure, shortened: (§2)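 Puromycin-selected LNCaP pools, grown in charcoal-stripped serum, were incubated 20-24 h at 37 °C with compounds, plus agonist challenge at 400 pM for wild-type and 600 pM for F876L.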

[3] = biological target: T2, F876L mutant Androgen Receptor (AR-F876L); experiment: LNCaP-AR-F876L AG reporter assay (ARE firefly luciferase, agonist mode); settings: for Emax: read-out: LNCaP-AR-F876L AG MAX % Stim
Procedure, shortened: as §1

[4] = biological target: T1, wild-type Androgen Receptor (AR-wt); experiment: LNCaP-AR-wt ANT reporter assay (ARE firefly luciferase, antagonist mode); settings: for IC50: antagonist mode, 400 pM R-1881 challenge, −Log10(IC50 [Molar]), read-out: LNCaP-AR-wt ANT pIC50 (converted); for Emax: read-out: LNCaP-AR-wt ANT MAX % Inh
Procedure, shortened: as §2

[5] = agonist mode, −Log10(EC50 [Molar]), read-out: LNCaP-AR-wt AG pEC50 (converted)
[6] = maximum % stimulation (agonist response) over tested concentration range
[7] = maximum % inhibition of R1881 control response over tested concentration range
[8] = agonist mode, −Log10(EC50 [Molar]), read-out: LNCaP-AR-F876L AG pEC50 (converted)

EC50 [1, 5]	Emax [1, 6]	Emax [2, 7]	IC50 [2]	EC50 [3, 8]	Emax [3, 6]	IC50 [4]	Emax [4, 7]	Compound	EC50 [1]	Emax [1]	Emax [2]	EC50 [3]	Emax [3]	Emax [4]
> 15100 nM	1.9%	91.6%	851 nM	> 15100 nM	1%	1450 nM	97.8%	N#Cc1ncc(N2C(=O)C3(CCC3)N(c3ccc(C(=O)NCc4ccco4)c(F)c3)C2=S)cc1C(F)(F)F [Cpd 76, 4-[6-[6-cyano-5-(trifluoromethyl)-3-pyridyl]-5-oxo-7-thioxo-6,8-diazaspiro[3.4]octan-8-yl]-2-fluoro-N-(2-furylmethyl)benzamide]	–	–	–	–	–	–
> 15100 nM	1.6%	101%	331 nM	> 15100 nM	0.5%	631 nM	101%	N#Cc1cccc(N2C(=S)N(c3cnc(C#N)c(C(F)(F)F)c3)C(=O)C23CCC3)c1 [Cpd 79, 5-[8-(3-cyanophenyl)-5-oxo-7-thioxo-6,8-diazaspiro[3.4]octan-6-yl]-3-(trifluoromethyl)pyridine-2-carbonitrile]	–	–	–	–	–	–
> 15100 nM	0.4%	95.4%	427 nM	> 15100 nM	1.2%	891 nM	100%	N#Cc1ncc(N2C(=O)C3(CCC3)N(c3ccc(C(N)=O)c(F)c3)C2=S)cc1C(F)(F)F [Cpd 80, 4-[6-[6-cyano-5-(trifluoromethyl)-3-pyridyl]-5-oxo-7-thioxo-6,8-diazaspiro[3.4]octan-8-yl]-2-fluoro-benzamide]	–	–	–	–	–	–
> 15100 nM	0%	95.5%	437 nM	> 15100 nM	1.2%	363 nM	103%	CCOC(=O)CCCNC(=O)c1ccc(N2C(=S)N(c3cnc(C#N)c(C(F)(F)F)c3)C(=O)C23CCC3)cc1F [Cpd 82, ethyl 4-[[4-[6-[6-cyano-5-(trifluoromethyl)-3-pyridyl]-5-oxo-7-thioxo-6,8-diazaspiro[3.4]octan-8-yl]-2-fluoro-benzoyl]amino]butanoate]	–	–	–	–	–	–

More lines, now with the values behind:

Compound	EC50 [1, 5]	Emax [1, 6]	Emax [2, 7]	IC50 [2]	EC50 [3, 8]	Emax [3, 6]	IC50 [4]	Emax [4, 7]	EC50 [1]	Emax [1]	Emax [2]	EC50 [3]	Emax [3]	Emax [4]
Cc1cc(N2C(=O)C3(CCC3)N(c3ccc(C(=O)Nc4ccc(Cl)cc4)c(F)c3)C2=S)cnc1C#N [Cpd 74, N-(4-chlorophenyl)-4-[6-(6-cyano-5-methyl-3-pyridyl)-5-oxo-7-thioxo-6,8-diazaspiro[3.4]octan-8-yl]-2-fluoro-benzamide]	> 15100 nM	0.6%	93.8%	759 nM	> 15100 nM	1%	1150 nM	94.1%	–	–	–	–	–	–
Cc1ccc(NC(=O)c2ccc(N3C(=S)N(c4cnc(C#N)c(C)c4)C(=O)C34CCC4)cc2F)cn1 [Cpd 75, 4-[6-(6-cyano-5-methyl-3-pyridyl)-5-oxo-7-thioxo-6,8-diazaspiro[3.4]octan-8-yl]-2-fluoro-N-(6-methyl-3-pyridyl)benzamide]	–	–	–	145 nM	–	–	562 nM	–	> 15100 nM	0.8%	100%	> 15100 nM	0.8%	101%
Cc1cc(N2C(=O)C3(CCC3)N(c3ccc(C(=O)Nc4cccc(Cl)c4)c(F)c3)C2=S)cnc1C#N [Cpd 78, N-(3-chlorophenyl)-4-[6-(6-cyano-5-methyl-3-pyridyl)-5-oxo-7-thioxo-6,8-diazaspiro[3.4]octan-8-yl]-2-fluoro-benzamide]	> 15100 nM	0.7%	95.9%	1050 nM	> 15100 nM	1%	1320 nM	96.5%	–	–	–	–	–	–
N#Cc1ncc(N2C(=O)C3(CCC3)N(c3cccc(CO)c3)C2=S)cc1C(F)(F)F [Cpd 81, 5-[8-[3-(hydroxymethyl)phenyl]-5-oxo-7-thioxo-6,8-diazaspiro[3.4]octan-6-yl]-3-(trifluoromethyl)pyridine-2-carbonitrile]	–	–	–	776 nM	–	–	708 nM	–	> 15100 nM	0.7%	100%	> 15100 nM	1.2%	95.9%
Cc1cc(N2C(=O)C3(CCC3)N(c3ccc(OC4CCNCC4)cc3)C2=S)cnc1C#N [Cpd 83, 3-methyl-5-[5-oxo-8-[4-(4-piperidyloxy)phenyl]-7-thioxo-6,8-diazaspiro[3.4]octan-6-yl]pyridine-2-carbonitrile]	> 15100 nM	0.1%	99.5%	1000 nM	> 15100 nM	0.5%	2240 nM	98.8%	–	–	–	–	–	–
Cc1cc(N2C(=O)C3(CCC3)N(c3ccc(C(=O)Nc4ccc(F)cc4)c(F)c3)C2=S)cnc1C#N [Cpd 84, 4-[6-(6-cyano-5-methyl-3-pyridyl)-5-oxo-7-thioxo-6,8-diazaspiro[3.4]octan-8-yl]-2-fluoro-N-(4-fluorophenyl)benzamide]	> 15100 nM	1%	91.9%	479 nM	> 15100 nM	1.3%	912 nM	87.8%	–	–	–	–	–	–
Cc1cc(N2C(=O)C3(CCC3)N(c3ccc(-c4ccco4)cc3)C2=S)cnc1C#N [Cpd 86, 5-[8-[4-(2-furyl)phenyl]-5-oxo-7-thioxo-6,8-diazaspiro[3.4]octan-6-yl]-3-methyl-pyridine-2-carbonitrile]	> 15100 nM	0.6%	93.3%	209 nM	> 15100 nM	1.3%	257 nM	91.7%	–	–	–	–	–	–
N#Cc1ncc(N2C(=O)C3(CCC3)N(c3ccc(Oc4cncnc4)cc3)C2=S)cc1C(F)(F)F [Cpd 88, 5-[5-oxo-8-(4-pyrimidin-5-yloxyphenyl)-7-thioxo-6,8-diazaspiro[3.4]octan-6-yl]-3-(trifluoromethyl)pyridine-2-carbonitrile]	–	–	–	138 nM	–	–	631 nM	–	> 15100 nM	0.7%	87.3%	> 15100 nM	0.7%	97.2%
